The values below come from patent US20240409585A1, “MACROCYCLIC IMMUNOMODULATORS” (priority 2021, published 2024).

For this assay, the target named is T1, Alexa fluor-647 labeled human PD-L1-Ig binding to Jurkat cell line over-expressing human PD-1 (Homo sapiens, UniProt Q15116).
T1 construct: expressed in transfected cells; host or cells: Jurkat
The assay can be described thus: Jurkat-PD-1 Cell Binding High-Content Screening Assay (CBA): Method 3 (Alexa fluor-647 labeled PD-L1-Ig). The conditions noted are these: Jurkat-PD-1 cells, Alexa fluor-647 labeled PD-L1-Ig 177 nM. An outline of the steps: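 Jurkat cells over-expressing human PD-1 in RPMI/10% FCS were preincubated 2 h at 37 °C with compound, then exposed 1 h to Alexa fluor-647 labeled human PD-L1-Ig (177 nM final). Cells fixed in 4% paraformaldehyde with Hoechst 33342 and binding quantified by high-content imaging.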

[1] abbreviates: head μM, read-out: CBA Method 3 μM.

Read-outs that look alike come from different tables or passages of the source. Numbered stars: 1 amine (or outer) side, 2 acyl side, 3 side chain; on linkers, the order of the positions; unused ones are H or OH. Bridge positions count the residues as written; N and C are the ends. Square brackets hold non-standard residues; d marks the D form. Peptide text beside a SMILES is read from it. * marks the point of attachment. Bip(4'-COOH) = N[C@@H](Cc1ccc(-c2ccc(C(=O)O)cc2)cc1)C(=O)O; Bip(4'-NHAc) = CC(=O)Nc1ccc(-c2ccc(C[C@H](N)C(=O)O)cc2)cc1; Phe(3-CF3) = N[C@@H](Cc1cccc(C(F)(F)F)c1)C(=O)O; Ala(morpholin-4-yl) = N[C@@H](CN1CCOCC1)C(=O)O; Phe(4-COOH) = N[C@@H](Cc1ccc(C(=O)O)cc1)C(=O)O; X53 = O=C([C@H](Cc1cc(F)c(F)cc1F)N[*:1])[*:2]; Bip = N[C@@H](Cc1ccc(-c2ccccc2)cc1)C(=O)O; Abu(3R-NH2) = C[C@@H](N)[C@H](N)C(=O)O; Phe(3-Me) = Cc1cccc(C[C@H](N)C(=O)O)c1; Val(3-OH) = CC(C)(O)[C@H](N)C(=O)O; hArg = N=C(N)NCCCC[C@H](N)C(=O)O; hPhe = N[C@@H](CCc1ccccc1)C(=O)O; Cha = N[C@@H](CC1CCCCC1)C(=O)O; Suc = O=C(CCC(=O)[*:2])[*:1]; Carboxymethyl = O=C(O)C*; NMeA = CN[C@@H](C)C(=O)O; Orn = NCCC[C@H](N)C(=O)O; Dab = NCC[C@H](N)C(=O)O; Dap = NC[C@H](N)C(=O)O

T1 sequence (Q15116 25-288): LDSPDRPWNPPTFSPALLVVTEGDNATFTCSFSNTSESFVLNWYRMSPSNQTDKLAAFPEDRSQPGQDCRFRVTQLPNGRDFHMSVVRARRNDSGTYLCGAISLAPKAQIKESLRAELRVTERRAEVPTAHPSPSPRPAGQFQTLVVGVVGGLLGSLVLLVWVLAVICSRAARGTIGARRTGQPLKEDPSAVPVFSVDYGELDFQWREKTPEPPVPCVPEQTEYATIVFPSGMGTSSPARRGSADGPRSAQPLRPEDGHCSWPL

Take `CC(C)C[C@H]1NC(=O)[C@H](C)N(C)C(=O)[C@H](CCC(N)=O)NC(=O)[C@H](Cc2ccc(-c3ccccc3)cc2)NC(=O)[C@H](CCc2ccccc2)NC(=O)[C@H](Cc2cccc(C(F)(F)F)c2)NC(=O)[C@H](CC(=O)O)NC(=O)[C@H](Cc2ccc(OCC(=O)O)cc2)NC(=O)[C@H]([C@@H](C)N)NC(=O)CSC[C@@H](C(=O)N[C@@H](CCN)C(N)=O)NC(=O)[C@H](CCC(=O)O)NC(=O)[C@H](C(C)C)NC(=O)[C@H](CC2CCCCC2)NC(=O)[C@H](CCN)NC1=O` [Example 5215] ({CH2CO}-[Abu(3R-NH2)]Y(Carboxymethyl)D[Phe(3-CF3)][hPhe][Bip]Q[NMeA][dL][Dab][Cha]VEC[Dab]-NH2; thioether N-14): the IC50 (nM, read-out: CBA Method 3) stood at 1 nM. Regarding `CC(=O)Nc1ccc(-c2ccc(C[C@@H]3NC(=O)[C@H](Cc4cccc(C(F)(F)F)c4)NC(=O)[C@H](CC(=O)O)NC(=O)[C@H](Cc4ccc(C(=O)O)cc4)NC(=O)[C@H](Cc4ccc(OCC(=O)O)cc4)NC(=O)CSC[C@@H](C(=O)N[C@@H](CCN)C(N)=O)NC(=O)[C@H](CCC(=O)O)NC(=O)[C@H](C(C)C)NC(=O)[C@H](CC4CCCCC4)NC(=O)[C@H](CCN)NC(=O)[C@@H](CC(C)C)NC(=O)[C@H](C)N(C)C(=O)[C@H](Cc4ccc(OCC(=O)O)cc4)NC(=O)[C@H](Cc4ccc(-c5ccccc5)cc4)NC3=O)cc2)cc1` [Example 5156] ({CH2CO}-Y(Carboxymethyl)[Phe(4-COOH)]D[Phe(3-CF3)][Bip(4'-NHAc)][Bip]Y(Carboxymethyl)[NMeA][dL][Dab][Cha]VEC[Dab]-NH2; thioether N-14), the IC50 under setting [1] turned out to be 70 nM. Take `CC(C)C[C@H]1NC(=O)[C@H](C)N(C)C(=O)[C@H](Cc2ccc(C(=O)O)cc2)NC(=O)[C@H](Cc2ccc(-c3ccccc3)cc2)NC(=O)[C@H](Cc2ccc(C(=O)O)cc2)NC(=O)[C@H](Cc2cccc(C(F)(F)F)c2)NC(=O)[C@H](CC(=O)O)NC(=O)[C@H](Cc2ccc(C(=O)O)cc2)NC(=O)[C@H](CN2CCOCC2)NC(=O)CSC[C@@H](C(=O)N[C@@H](CCN)C(N)=O)NC(=O)[C@H](CNC(=O)CCC(=O)O)NC(=O)[C@H](C(C)C)NC(=O)[C@H](CC2CCCCC2)NC(=O)[C@H](CCN)NC1=O` [Example 5144] ({CH2CO}-[Ala(morpholin-4-yl)][Phe(4-COOH)]D[Phe(3-CF3)][Phe(4-COOH)][Bip][Phe(4-COOH)][NMeA][dL][Dab][Cha]V[Dap](Suc)C[Dab]-NH2; thioether N-14): the IC50 (nM, read-out: CBA Method 3) is 9.7 nM. As to `CC(=O)Nc1ccc(-c2ccc(C[C@@H]3NC(=O)[C@H](Cc4cccc(C(F)(F)F)c4)NC(=O)[C@H](CC(=O)O)NC(=O)[C@H](Cc4ccc(C(=O)O)cc4)NC(=O)[C@H](CC(C)C)NC(=O)CSC[C@@H](C(=O)N[C@@H](CCN)C(N)=O)NC(=O)[C@H](CCCN)NC(=O)[C@H](C(C)C)NC(=O)[C@H](CC4CCCCC4)NC(=O)[C@H](CCN)NC(=O)[C@@H](CC(C)C)NC(=O)[C@H](C)N(C)C(=O)[C@H](CCCN)NC(=O)[C@H](Cc4ccc(-c5ccccc5)cc4)NC3=O)cc2)cc1` [Example 5096] ({CH2CO}-L[Phe(4-COOH)]D[Phe(3-CF3)][Bip(4'-NHAc)][Bip][Orn][NMeA][dL][Dab][Cha]V[Orn]C[Dab]-NH2; thioether N-14), under setting [1], the IC50 was found to be 40 nM.

Regarding `Cc1cccc(C[C@@H]2NC(=O)[C@H](CC(=O)O)NC(=O)[C@H](Cc3ccc(OCC(=O)O)cc3)NC(=O)[C@H](CCCN)NC(=O)CSC[C@@H](C(=O)N[C@@H](CCN)C(N)=O)NC(=O)[C@H](CCCN)NC(=O)[C@H](C(C)C)NC(=O)[C@H](CC3CCCCC3)NC(=O)[C@H](CCN)NC(=O)[C@@H](CC(C)C)NC(=O)[C@H](C)N(C)C(=O)[C@H](CCC(N)=O)NC(=O)[C@H](Cc3ccc(-c4ccccc4)cc3)NC(=O)[C@H](Cc3ccc(C(=O)O)cc3)NC2=O)c1` [Example 5180] ({CH2CO}-[Orn]Y(Carboxymethyl)D[Phe(3-Me)][Phe(4-COOH)][Bip]Q[NMeA][dL][Dab][Cha]V[Orn]C[Dab]-NH2; thioether N-14), the IC50 (nM, read-out: CBA Method 3) was 6.8 nM. Consider `Cc1cccc(C[C@@H]2NC(=O)[C@H](CC(=O)O)NC(=O)[C@H](Cc3ccc(OCC(=O)O)cc3)NC(=O)[C@H](CCCCNC(=N)N)NC(=O)CSC[C@@H](C(=O)N[C@@H](CCN)C(N)=O)NC(=O)[C@H](CO)NC(=O)[C@H](C(C)(C)O)NC(=O)[C@H](CC3CCCCC3)NC(=O)[C@H](CCN)NC(=O)[C@@H](CC(C)C)NC(=O)[C@H](C)N(C)C(=O)[C@H](CCC(N)=O)NC(=O)[C@H](Cc3ccc(-c4ccccc4)cc3)NC(=O)[C@H](CCc3ccccc3)NC2=O)c1` [Example 5282] ({CH2CO}-[hArg]Y(Carboxymethyl)D[Phe(3-Me)][hPhe][Bip]Q[NMeA][dL][Dab][Cha][Val(3-OH)]SC[Dab]-NH2; thioether N-14), for which, under setting [1], the IC50 came to 170 nM.

For `Cc1cccc(C[C@@H]2NC(=O)[C@H](CC(=O)O)NC(=O)[C@H](Cc3ccc(C(=O)O)cc3)NC(=O)[C@H](C)NC(=O)CSC[C@@H](C(=O)N[C@@H](CCN)C(N)=O)NC(=O)[C@H](CC(=O)O)NC(=O)[C@H](C(C)C)NC(=O)[C@H](CC3CCCCC3)NC(=O)[C@H](CCN)NC(=O)[C@@H](CC(C)C)NC(=O)[C@H](C)N(C)C(=O)[C@H](Cc3ccc(C(=O)O)cc3)NC(=O)[C@H](Cc3ccc(-c4ccccc4)cc3)NC(=O)[C@H](Cc3ccc(C(=O)O)cc3)NC2=O)c1` [Example 5135] ({CH2CO}-A[Phe(4-COOH)]D[Phe(3-Me)][Phe(4-COOH)][Bip][Phe(4-COOH)][NMeA][dL][Dab][Cha]VDC[Dab]-NH2; thioether N-14), the IC50 (nM, read-out: CBA Method 3) was determined as 6.8 nM. For the compound `Cc1cccc(C[C@@H]2NC(=O)[C@H](CC(=O)O)NC(=O)[C@H](Cc3ccc(OCC(=O)O)cc3)NC(=O)[C@H](Cc3cc(F)c(F)cc3F)NC(=O)CSC[C@@H](C(=O)N[C@@H](CCN)C(N)=O)NC(=O)[C@H](CCCN)NC(=O)[C@H](C(C)C)NC(=O)[C@H](CC3CCCCC3)NC(=O)[C@H](CCN)NC(=O)[C@@H](CC(C)C)NC(=O)[C@H](C)N(C)C(=O)[C@H](CCC(N)=O)NC(=O)[C@H](Cc3ccc(-c4ccccc4)cc3)NC(=O)[C@H](Cc3ccc(C(=O)O)cc3)NC2=O)c1` [Example 5290] ({CH2CO}-[X53]Y(Carboxymethyl)D[Phe(3-Me)][Phe(4-COOH)][Bip]Q[NMeA][dL][Dab][Cha]V[Orn]C[Dab]-NH2; thioether N-14), the IC50 under setting [1] turned out to be 100 nM.

`Cc1cccc(C[C@@H]2NC(=O)[C@H](CC(=O)O)NC(=O)[C@H](Cc3ccc(OCC(=O)O)cc3)NC(=O)[C@H](CC3CCCCC3)NC(=O)CSC[C@@H](C(=O)N[C@@H](CCN)C(N)=O)NC(=O)[C@H](Cc3cnc[nH]3)NC(=O)[C@H](C(C)(C)O)NC(=O)[C@H](CC3CCCCC3)NC(=O)[C@H](CCN)NC(=O)[C@@H](CC(C)C)NC(=O)[C@H](C)N(C)C(=O)[C@H](CCC(N)=O)NC(=O)[C@H](Cc3ccc(-c4ccccc4)cc3)NC(=O)[C@H](CCc3ccccc3)NC2=O)c1` [Example 5277] ({CH2CO}-[Cha]Y(Carboxymethyl)D[Phe(3-Me)][hPhe][Bip]Q[NMeA][dL][Dab][Cha][Val(3-OH)]HC[Dab]-NH2; thioether N-14): the IC50 under setting [1] worked out at 30 nM. With `Cc1cccc(C[C@@H]2NC(=O)[C@H](CC(=O)O)NC(=O)[C@H](Cc3ccc(-c4ccc(C(=O)O)cc4)cc3)NC(=O)[C@H](CN3CCOCC3)NC(=O)CSC[C@@H](C(=O)N[C@@H](CCN)C(N)=O)NC(=O)[C@H](CCC(=O)O)NC(=O)[C@H](C(C)(C)O)NC(=O)[C@H](CC(C)C)NC(=O)[C@H](CC(N)=O)NC(=O)[C@@H](CC(C)C)NC(=O)[C@H](C)N(C)C(=O)[C@H](C(C)C)NC(=O)[C@H](Cc3ccc(-c4ccccc4)cc3)NC(=O)[C@H](CC(C)C)NC2=O)c1` [Example 5126] ({CH2CO}-[Ala(morpholin-4-yl)][Bip(4'-COOH)]D[Phe(3-Me)]L[Bip]V[NMeA][dL]NL[Val(3-OH)]EC[Dab]-NH2; thioether N-14), the IC50 (nM, read-out: CBA Method 3) is 3.2 nM.

In the case of `CC(C)C[C@H]1NC(=O)[C@H](C)N(C)C(=O)[C@H](CCC(N)=O)NC(=O)[C@H](Cc2ccc(-c3ccccc3)cc2)NC(=O)[C@H](CCc2ccccc2)NC(=O)[C@H](Cc2cccc(C(F)(F)F)c2)NC(=O)[C@H](CC(=O)O)NC(=O)[C@H](CCC(N)=O)NC(=O)[C@H](CC2CCCCC2)NC(=O)CSC[C@@H](C(=O)N[C@@H](CCN)C(N)=O)NC(=O)[C@H](CCCN)NC(=O)[C@H](C(C)C)NC(=O)[C@H](CC2CCCCC2)NC(=O)[C@H](CCN)NC1=O` [Example 5246] ({CH2CO}-[Cha]QD[Phe(3-CF3)][hPhe][Bip]Q[NMeA][dL][Dab][Cha]V[Orn]C[Dab]-NH2; thioether N-14), the IC50 under setting [1] came out at 420 nM.

As to `CC(C)C[C@H]1NC(=O)[C@H](C)N(C)C(=O)[C@H](Cc2ccc(OCC(=O)O)cc2)NC(=O)[C@H](Cc2ccc(-c3ccccc3)cc2)NC(=O)[C@H](Cc2ccc(OCC(=O)O)cc2)NC(=O)[C@H](Cc2c[nH]c3ccccc23)NC(=O)[C@H](CC(=O)O)NC(=O)[C@H](Cc2ccc(-c3ccc(C(=O)O)cc3)cc2)NC(=O)[C@H](CN2CCOCC2)NC(=O)CSC[C@@H](C(=O)N[C@@H](CCN)C(N)=O)NC(=O)[C@H](CCC(=O)O)NC(=O)[C@H](C(C)C)NC(=O)[C@H](CC2CCCCC2)NC(=O)[C@H](CCN)NC1=O` [Example 5117] ({CH2CO}-[Ala(morpholin-4-yl)][Bip(4'-COOH)]DWY(Carboxymethyl)[Bip]Y(Carboxymethyl)[NMeA][dL][Dab][Cha]VEC[Dab]-NH2; thioether N-14), the IC50 (nM, read-out: CBA Method 3) is 9.7 nM. Turning to `Cc1cccc(C[C@@H]2NC(=O)[C@H](CC(=O)O)NC(=O)[C@H](Cc3ccc(OCC(=O)O)cc3)NC(=O)[C@H](Cc3cccc(C(F)(F)F)c3)NC(=O)CSC[C@@H](C(=O)N[C@@H](CCN)C(N)=O)NC(=O)[C@H](CCCN)NC(=O)[C@H](C(C)C)NC(=O)[C@H](CC3CCCCC3)NC(=O)[C@H](CCN)NC(=O)[C@@H](CC(C)C)NC(=O)[C@H](C)N(C)C(=O)[C@H](CCC(N)=O)NC(=O)[C@H](Cc3ccc(-c4ccccc4)cc3)NC(=O)[C@H](Cc3ccc(C(=O)O)cc3)NC2=O)c1` [Example 5276] ({CH2CO}-[Phe(3-CF3)]Y(Carboxymethyl)D[Phe(3-Me)][Phe(4-COOH)][Bip]Q[NMeA][dL][Dab][Cha]V[Orn]C[Dab]-NH2; thioether N-14), the IC50 (nM, read-out: CBA Method 3) is 1.1 nM.
